Results from patent US10221163B2 (priority 2015, dated 2019).
Like-named read-outs stand apart in the source and are kept apart here.

Legend:
[1] = biological target: IMP-1 (Serratia marcescens, UniProt P52699); assay: biochemical; format: biochemical; settings: fluorescence assay, CCF2-FA substrate, 2 pM enzyme, 2 hours at 25° C.; read-out: IMP-1 IC50
Procedure, shortened: (§1)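 IC50 values derive from 4-parameter fits of percent inhibition against inhibitor concentration on semi-log axes. Activity was monitored by fluorescence with the CCF2-FA substrate after a 2-hour, 25° C incubation of compound, enzyme and substrate.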

[2] = biological target: NDM-1 (Klebsiella pneumoniae, UniProt C7C422); assay: biochemical; format: biochemical; settings: fluorescence assay, CCF2-FA substrate, 1 pM enzyme, 2 hours at 25° C.; read-out: NDM-1 IC50
Procedure, shortened: as §1

[3] = biological target: VIM-1 (Pseudomonas aeruginosa (strain ATCC 15692 / DSM 22644 / CIP 104116 / JCM 14847 / LMG 12228 / 1C / PRS 101 / PAO1), UniProt A0A0F7KYQ8); assay: biochemical; settings: CCF2-FA substrate, 30 pM enzyme, 2 hours at 25° C.
Procedure, shortened: as §1

[4] = system: Escherichia coli expressing NDM-1 (CLB30005, CLB30016); format: cell-based; settings: with imipenem 1 μg/ml; 95% inhibition of bacterial growth
Procedure, shortened: (§2)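 Imipenem 1 μg/ml + inhibitor; MBL-expressing clinical strains in 1.1×CAMHB, inoculum from saline suspension diluted 1:100; 35° C, 22–24 h; absorbance read-out.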

[5] = system: Klebsiella pneumoniae expressing VIM-1 (IHMA599644); format: cell-based; settings: with imipenem 1 μg/ml; 95% inhibition of bacterial growth
Procedure, shortened: as §2

[6] = system: Serratia marcescens expressing IMP-1 (CL5741); format: cell-based; settings: with imipenem 1 μg/ml; 95% inhibition of bacterial growth
Procedure, shortened: as §2

[7] = system: Pseudomonas aeruginosa efflux+ (MB9798), IMP-1; format: cell-based; settings: concentration restoring susceptibility to imipenem at 2 μg/mL in the presence of a class A, C, D serine β-lactamase inhibitor closely related to relebactam
Procedure, shortened: (§3)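 Microbroth MIC tests in PAO1-background strains with fixed imipenem and/or ceftazidime, usually at the CLSI breakpoint, plus fixed class A/C β-lactamase inhibitor against AmpC. MBL inhibitor titrated; concentration restoring susceptibility recorded and compared as fold difference between efflux+ MB9798 and efflux− MB9799.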

[8] = system: Pseudomonas aeruginosa efflux− (MB9799), IMP-1; format: cell-based; settings: concentration restoring susceptibility to imipenem at 2 μg/mL in the presence of a class A, C, D serine β-lactamase inhibitor closely related to relebactam
Procedure, shortened: as §3

[9] = system: Pseudomonas aeruginosa MB9798 vs MB9799; settings: ratio MITC95 PA_9798/MITC95 PA_9799
Procedure, shortened: as §3

[10] = fluorescence assay, read-out: VIM-1 IC50

Sequence of NDM-1 (C7C422 whole entry, looked up, species assumed): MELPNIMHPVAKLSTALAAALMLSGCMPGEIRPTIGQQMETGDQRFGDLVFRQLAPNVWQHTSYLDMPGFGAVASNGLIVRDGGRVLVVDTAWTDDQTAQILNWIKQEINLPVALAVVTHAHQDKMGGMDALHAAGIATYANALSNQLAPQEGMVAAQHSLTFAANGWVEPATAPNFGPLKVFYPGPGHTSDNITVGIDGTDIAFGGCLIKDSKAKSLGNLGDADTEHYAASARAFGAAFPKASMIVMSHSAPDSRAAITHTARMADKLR
Sequence of IMP-1 (P52699 whole entry, looked up, species assumed): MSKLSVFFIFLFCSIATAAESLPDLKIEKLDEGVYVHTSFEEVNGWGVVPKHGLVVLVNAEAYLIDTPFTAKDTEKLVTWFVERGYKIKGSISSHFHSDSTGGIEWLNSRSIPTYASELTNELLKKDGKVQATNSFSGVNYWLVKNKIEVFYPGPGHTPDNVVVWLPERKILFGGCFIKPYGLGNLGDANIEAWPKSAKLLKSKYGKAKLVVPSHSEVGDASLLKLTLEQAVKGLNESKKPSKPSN

## CN(C)C(=O)CNS(=O)(=O)c1ccc(-c2cccc3sc(N)nc23)c(-c2nnn[nH]2)c1S(N)(=O)=O [Example 36, N^2-{[4-(2-amino-1,3-benzothiazol-4-yl)-2-sulfamoyl-3-(1H-tetrazol-5-yl)phenyl]sulfonyl}-N,N-dimethylglycinamide]
[1]
  IC50: 247 pM
[2]
  IC50: 36.9 pM
[3]; VIM-1 IC50, fluorescence assay
  IC50: 166 pM
[4]
  Escherichia coli expressing NDM-1 (CLB30016) MITC95: 25 µM
[5]
  Klebsiella pneumoniae expressing VIM-1 (IHMA599644) MITC95: 12.5 µM
[6]
  Serratia marcescens expressing IMP-1 (CL5741) MITC95: 3.125 µM
[7]
  P. aeruginosa expressing IMP-1, efflux + (MB9798) MITC95: 3.125 µM
[8]
  P. aeruginosa expressing IMP-1, efflux − (MB9799) MITC95: 3.125 µM
[9]
  Efflux ratio: 1.00

## Nc1nc2c(-c3ccc(S(=O)(=O)NCC4(CO)CC4)c(S(N)(=O)=O)c3-c3nnn[nH]3)cccc2s1 [Example 37, 4-(2-amino-1,3-benzothiazol-4-yl)-N1-{[1-(hydroxymethyl)cyclopropyl]methyl}-3-(1H-tetrazol-5-yl)benzene-1,2-disulfonamide]
[1]
  IC50: 287 pM
[2]
  IC50: 7.69 pM
[3]; VIM-1 IC50, fluorescence assay
  IC50: 198 pM
[4]
  Escherichia coli expressing NDM-1 (CLB30016) MITC95: 12.5 µM
[5]
  Klebsiella pneumoniae expressing VIM-1 (IHMA599644) MITC95: 12.5 µM
[6]
  Serratia marcescens expressing IMP-1 (CL5741) MITC95: 3.125 µM
[7]
  P. aeruginosa expressing IMP-1, efflux + (MB9798) MITC95: 6.25 µM
[8]
  P. aeruginosa expressing IMP-1, efflux − (MB9799) MITC95: 6.25 µM
[9]
  Efflux ratio: 1.00

## CN1CC2(CCN(S(=O)(=O)c3ccc(-c4cccc5sc(N)nc45)c(-c4nnn[nH]4)c3S(N)(=O)=O)C2)C1 [Example 38, 3-(2-amino-1,3-benzothiazol-4-yl)-6-[(2-methyl-2,6-diazaspiro[3.4]oct-6-yl)sulfonyl]-2-(1H-tetrazol-5-yl)benzenesulfonamide]
[1]
  IC50: 1430 pM
[2]
  IC50: 424 pM
[3]; VIM-1 IC50, fluorescence assay
  IC50: 2520 pM
[4]
  Escherichia coli expressing NDM-1 (CLB30016) MITC95: 12.5 µM
[5]
  Klebsiella pneumoniae expressing VIM-1 (IHMA599644) MITC95: 12.5 µM
[6]
  Serratia marcescens expressing IMP-1 (CL5741) MITC95: 3.125 µM
[7]
  P. aeruginosa expressing IMP-1, efflux + (MB9798) MITC95: 3.125 µM
[8]
  P. aeruginosa expressing IMP-1, efflux − (MB9799) MITC95: 3.125 µM
[9]
  Efflux ratio: 1.00

## CN(C)C1CN(S(=O)(=O)c2ccc(-c3cccc4sc(N)nc34)c(-c3nnn[nH]3)c2S(N)(=O)=O)C1 [Example 39, 3-(2-amino-1,3-benzothiazol-4-yl)-6-{[3-(dimethylamino)azetidin-1-yl]sulfonyl}-2-(1H-tetrazol-5-yl)benzenesulfonamide]
[1]
  IC50: 878 pM
[2]
  IC50: 506 pM
[3]; [10]
  IC50: 908 pM
[4]
  Escherichia coli expressing NDM-1 (CLB30016) MITC95: 12.5 µM
[5]
  Klebsiella pneumoniae expressing VIM-1 (IHMA599644) MITC95: 12.5 µM
[6]
  Serratia marcescens expressing IMP-1 (CL5741) MITC95: 6.25 µM
[7]
  P. aeruginosa expressing IMP-1, efflux + (MB9798) MITC95: 50 µM
[8]
  P. aeruginosa expressing IMP-1, efflux − (MB9799) MITC95: 3.125 µM
[9]
  Efflux ratio: 16.00

## Nc1nc2c(-c3ccc(S(=O)(=O)N4CC5CC4CS5(=O)=O)c(S(N)(=O)=O)c3-c3nnn[nH]3)cccc2s1 (stereo not drawn) [Example 40, 3-(2-amino-1,3-benzothiazol-4-yl)-6-[(2,2-dioxido-2-thia-5-azabicyclo[2.2.1]hept-5-yl)sulfonyl]-2-(1H-tetrazol-5-yl)benzenesulfonamide]
[1]
  IC50: 1860 pM
[2]
  IC50: 1700 pM
[3]; VIM-1 IC50, fluorescence assay
  IC50: 2660 pM
[4]
  Escherichia coli expressing NDM-1 (CLB30016) MITC95: 25 µM
[5]
  Klebsiella pneumoniae expressing VIM-1 (IHMA599644) MITC95: 25 µM
[6]
  Serratia marcescens expressing IMP-1 (CL5741) MITC95: 6.25 µM
[7]
  P. aeruginosa expressing IMP-1, efflux + (MB9798) MITC95: 50 µM
[8]
  P. aeruginosa expressing IMP-1, efflux − (MB9799) MITC95: 3.125 µM
[9]
  Efflux ratio: 16.00

## CN(C1CCS(=O)(=O)C1)S(=O)(=O)c1ccc(-c2cccc3sc(N)nc23)c(-c2nnn[nH]2)c1S(N)(=O)=O (stereo not drawn) [Example 41, 4-(2-amino-1,3-benzothiazol-4-yl)-N^1-(1,1-dioxidotetrahydrothiophen-3-yl)-N~1~-methyl-3-(1H-tetrazol-5-yl)benzene-1,2-disulfonamide]
[1]
  IC50: 810 pM
[2]
  IC50: 938 pM
[3]; [10]
  IC50: 1750 pM
[4]
  Escherichia coli expressing NDM-1 (CLB30016) MITC95: 25 µM
[5]
  Klebsiella pneumoniae expressing VIM-1 (IHMA599644) MITC95: 25 µM
[6]
  Serratia marcescens expressing IMP-1 (CL5741) MITC95: 6.25 µM
[7]
  P. aeruginosa expressing IMP-1, efflux + (MB9798) MITC95: 25 µM
[8]
  P. aeruginosa expressing IMP-1, efflux − (MB9799) MITC95: 3.125 µM
[9]
  Efflux ratio: 8.00

## Nc1nc2c(-c3ccc(S(=O)(=O)N4CC(F)(F)C4)c(S(N)(=O)=O)c3-c3nnn[nH]3)cccc2s1 [Example 42, 3-(2-amino-1,3-benzothiazol-4-yl)-6-[(3,3-difluoroazetidin-1-yl)sulfonyl]-2-(1H-tetrazol-5-yl)benzenesulfonamide]
[1]
  IC50: 700 pM
[2]
  IC50: 697 pM
[3]; VIM-1 IC50, fluorescence assay
  IC50: 670 pM
[4]
  Escherichia coli expressing NDM-1 (CLB30016) MITC95: 12.5 µM
[5]
  Klebsiella pneumoniae expressing VIM-1 (IHMA599644) MITC95: 12.5 µM
[6]
  Serratia marcescens expressing IMP-1 (CL5741) MITC95: 3.125 µM
[7]
  P. aeruginosa expressing IMP-1, efflux + (MB9798) MITC95: 25 µM
[8]
  P. aeruginosa expressing IMP-1, efflux − (MB9799) MITC95: 1.563 µM
[9]
  Efflux ratio: 15.99

## Nc1nc2c(-c3ccc(S(=O)(=O)N4CCC(F)(F)C4)c(S(N)(=O)=O)c3-c3nnn[nH]3)cccc2s1 [Example 43, 3-(2-amino-1,3-benzothiazol-4-yl)-6-[(3,3-difluoropyrrolidin-1-yl)sulfonyl]-2-(1H-tetrazol-5-yl)benzenesulfonamide]
[1]
  IC50: 1230 pM
[2]
  IC50: 2070 pM
[3]; [10]
  IC50: 1860 pM
[4]
  Escherichia coli expressing NDM-1 (CLB30016) MITC95: 25 µM
[5]
  Klebsiella pneumoniae expressing VIM-1 (IHMA599644) MITC95: 100 µM
[6]
  Serratia marcescens expressing IMP-1 (CL5741) MITC95: 6.25 µM
[7]
  P. aeruginosa expressing IMP-1, efflux + (MB9798) MITC95: 100 µM
[8]
  P. aeruginosa expressing IMP-1, efflux − (MB9799) MITC95: 1.563 µM
[9]
  Efflux ratio: 63.98

## Nc1nc2c(-c3ccc(S(=O)(=O)N4CC[S+]([O-])CC4)c(S(N)(=O)=O)c3-c3nnn[nH]3)cccc2s1 [Example 44, 3-(2-amino-1,3-benzothiazol-4-yl)-6-[(1-oxidothiomorpholin-4-yl)sulfonyl]-2-(1H-tetrazol-5-yl)benzenesulfonamide]
[1]
  IC50: 2220 pM
[2]
  IC50: 872 pM
[3]; [10]
  IC50: 2060 pM
[4]
  Escherichia coli expressing NDM-1 (CLB30016) MITC95: 25 µM
[5]
  Klebsiella pneumoniae expressing VIM-1 (IHMA599644) MITC95: 25 µM
[6]
  Serratia marcescens expressing IMP-1 (CL5741) MITC95: 6.25 µM
[7]
  P. aeruginosa expressing IMP-1, efflux + (MB9798) MITC95: 12.5 µM
[8]
  P. aeruginosa expressing IMP-1, efflux − (MB9799) MITC95: 6.25 µM
[9]
  Efflux ratio: 2.00

## Nc1nc2c(-c3ccc(S(=O)(=O)NCC4(F)CNC4)c(S(N)(=O)=O)c3-c3nnn[nH]3)cccc2s1 [Example 46, 4-(2-amino-1,3-benzothiazol-4-yl)-N^1-[(3-fluoroazetidin-3-yl)methyl]-3-(1H-tetrazol-5-yl)benzene-1,2-disulfonamide]
[1]
  IC50: 289 pM
[2]
  IC50: 57.2 pM
[3]; [10]
  IC50: 321 pM
[4]
  Escherichia coli expressing NDM-1 (CLB30016) MITC95: 6.25 µM
[5]
  Klebsiella pneumoniae expressing VIM-1 (IHMA599644) MITC95: 3.125 µM
[6]
  Serratia marcescens expressing IMP-1 (CL5741) MITC95: 1.563 µM
[7]
  P. aeruginosa expressing IMP-1, efflux + (MB9798) MITC95: 0.7813 µM
[8]
  P. aeruginosa expressing IMP-1, efflux − (MB9799) MITC95: 1.563 µM
[9]
  Efflux ratio: 0.50

## NCC(F)(F)CNS(=O)(=O)c1ccc(-c2cccc3sc(N)nc23)c(-c2nnn[nH]2)c1S(N)(=O)=O [Example 47, 4-(2-amino-1,3-benzothiazol-4-yl)-N1-(3-amino-2,2-difluoropropyl)-3-(1H-tetrazol-5-yl)benzene-1,2-disulfonamide]
[1]
  IC50: 484 pM
[2]
  IC50: 65.8 pM
[3]; [10]
  IC50: 304 pM
[4]
  Escherichia coli expressing NDM-1 (CLB30016) MITC95: 6.25 µM
[5]
  Klebsiella pneumoniae expressing VIM-1 (IHMA599644) MITC95: 12.5 µM
[6]
  Serratia marcescens expressing IMP-1 (CL5741) MITC95: 3.125 µM
[7]
  P. aeruginosa expressing IMP-1, efflux + (MB9798) MITC95: 3.125 µM
[8]
  P. aeruginosa expressing IMP-1, efflux − (MB9799) MITC95: 3.125 µM
[9]
  Efflux ratio: 1.00

## Nc1nc2c(-c3ccc(S(=O)(=O)N4CC5(CCNC5)C4)c(S(N)(=O)=O)c3-c3nnn[nH]3)cccc2s1 [Example 48, 3-(2-amino-1,3-benzothiazol-4-yl)-6-(2,6-diazaspiro[3.4]oct-2-ylsulfonyl)-2-(1H-tetrazol-5-yl)benzenesulfonamide]
[1]
  IC50: 951 pM
[2]
  IC50: 258 pM
[3]; [10]
  IC50: 490 pM
[4]
  Escherichia coli expressing NDM-1 (CLB30016) MITC95: 6.25 µM
[5]
  Klebsiella pneumoniae expressing VIM-1 (IHMA599644) MITC95: 3.125 µM
[6]
  Serratia marcescens expressing IMP-1 (CL5741) MITC95: 3.125 µM
[7]
  P. aeruginosa expressing IMP-1, efflux + (MB9798) MITC95: 1.563 µM
[8]
  P. aeruginosa expressing IMP-1, efflux − (MB9799) MITC95: 1.563 µM
[9]
  Efflux ratio: 1.00
